Test systems include OVCAR-5; UACC-257; HCC 2998; OVCAR-4; SNB-19; SK-MEL-2; OVCAR-3; IGROV-1; NCI-H23; SK-MEL-28; UACC-62; SF-268; HCT-116; OVCAR-8; CCRF-CEM; COLO 205; A549; UO-31; HCT-15; Malme-3M.
What all share (assay): NCI-60 cell line screen, 48 h

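Briefly, cells in 96-well plates were exposed to five compound concentrations for 48 h, and endpoints were estimated by linear interpolation. GI50 marks 50% less growth.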 Calls of active or inactive are those of the source. No stated cut-off is given here; in the data, active = GI50 up to about 1.1 µM and inactive = higher.

On to `COc1ccccc1NC(=O)/C(Cc1nc2ccc([N+](=O)[O-])cc2nc1O)=N\NC(=O)C[N+](C)(C)C`, for which the GI50 was > 100 µM (inactive) with OVCAR-5; > 100 µM (inactive) in the assay on UACC-257; 29.6 µM (inactive) with HCC 2998; > 100 µM (inactive) in the assay with OVCAR-4; > 100 µM (inactive) in the assay on SNB-19; > 100 µM (inactive) in the assay with SK-MEL-2. Moreover, the GI50 with OVCAR-3 was 41.7 µM (inactive); with IGROV-1, 55.3 µM (inactive); in the assay on NCI-H23, > 100 µM (inactive); in the assay on SK-MEL-28, > 100 µM (inactive); in the assay with UACC-62, 62.5 µM (inactive); in the assay with SF-268, > 100 µM (inactive). Moreover, the GI50 in the assay on HCT-116 is 46.8 µM (inactive); with OVCAR-8 it was > 100 µM (inactive); in the assay on CCRF-CEM, 13.3 µM (inactive); with COLO 205, 37.2 µM (inactive); in the assay with A549, > 100 µM (inactive); in the assay on UO-31, 25.7 µM (inactive). The molecule further gave a GI50 with HCT-15 of 40.7 µM.
Take `Nc1c(Br)cc2c(c1Br)Cc1cc(Br)ccc1-2`: the GI50 in the assay on UACC-257, in the assay on HCC 2998, in the assay with OVCAR-4, in the assay on SNB-19, in the assay with OVCAR-3 and with NCI-H23 was > 100 µM (inactive) throughout. In addition, the GI50 in the assay with SK-MEL-28, in the assay with SF-268, with HCT-116, in the assay with OVCAR-8, in the assay with CCRF-CEM and in the assay on COLO 205 was > 100 µM (inactive) each time. In addition, the GI50 in the assay with A549 is > 100 µM (inactive); in the assay on UO-31, > 100 µM (inactive); in the assay on HCT-15, above 100 µM.
Take `c1nc2nc[nH]c(SSc3[nH]cnc4ncnc3-4)c-2n1`: the GI50 in the assay with OVCAR-5 was 4.4 µM (inactive); in the assay on UACC-257 it was 2.63 µM (inactive); in the assay on SNB-19, 47.4 µM (inactive); with SK-MEL-2, 8.22 µM (inactive); in the assay with OVCAR-3, < 0.0442 µM (active); with IGROV-1, > 22.3 µM (inactive). The GI50 is 0.292 µM (active) in the assay on NCI-H23; 61.8 µM (inactive) with SK-MEL-28; < 0.01 µM (active) in the assay on UACC-62; 0.897 µM (active) with SF-268; 0.41 µM (active) in the assay on HCT-116; 0.455 µM (active) in the assay with OVCAR-8. Further, the GI50 in the assay on CCRF-CEM is 0.202 µM (active); with COLO 205, 0.653 µM (active); with A549 it was 13.9 µM (inactive); in the assay on Malme-3M, 0.376 µM (active); in the assay on HCT-15 it was 0.925 µM.
For the molecule `COc1ccc(-c2cc(-c3ccccc3)c(C#N)c(=O)n2C2OC(CO)C(O)C(O)C2O)cc1` (stereo not given), the GI50 in the assay with OVCAR-5, in the assay on UACC-257, with HCC 2998, in the assay with OVCAR-4, with SNB-19 and with OVCAR-3 was > 100 µM (inactive) throughout. Also, the GI50 with IGROV-1, in the assay with NCI-H23, in the assay with SK-MEL-28, in the assay on UACC-62, in the assay on SF-268 and in the assay on HCT-116 was > 100 µM (inactive) each time. The GI50 in the assay on OVCAR-8, in the assay on CCRF-CEM, in the assay with COLO 205, with A549, with UO-31 and in the assay on Malme-3M was > 100 µM (inactive) throughout. This molecule yielded a GI50 in the assay on HCT-15 above 100 µM.
Take `CCSc1nc(N)c2c(-c3ccccc3)c3c(nc2n1)CCC3`: the GI50 with OVCAR-5 is 9.91 µM (inactive); in the assay with UACC-257, > 100 µM (inactive); in the assay on OVCAR-4, > 100 µM (inactive); with SNB-19 it was > 100 µM (inactive); with OVCAR-3, > 100 µM (inactive); in the assay with IGROV-1 it was > 100 µM (inactive). Also, the GI50 in the assay with NCI-H23, in the assay on SK-MEL-28, in the assay with UACC-62, with SF-268, in the assay on HCT-116 and in the assay on OVCAR-8 was > 100 µM (inactive) throughout. In addition, the GI50 was > 100 µM (inactive) in the assay on CCRF-CEM; > 100 µM (inactive) in the assay on COLO 205; 4.56 µM (inactive) in the assay on A549; 2.59 µM (inactive) with UO-31; > 100 µM (inactive) in the assay with Malme-3M; above 100 µM with HCT-15.
Turning to `CCOC(=O)[C@H]1Nc2c(cccc2[N+](=O)[O-])[C@H]2OCC[C@@H]12`, the GI50 was > 100 µM (inactive) in the assay on OVCAR-5; 11.5 µM (inactive) with UACC-257; > 100 µM (inactive) in the assay on HCC 2998; > 100 µM (inactive) with OVCAR-4; > 100 µM (inactive) in the assay with SNB-19; > 100 µM (inactive) with SK-MEL-2. Besides, the GI50 with OVCAR-3, in the assay with IGROV-1, with NCI-H23, in the assay on SK-MEL-28, in the assay on UACC-62 and in the assay with SF-268 was > 100 µM (inactive) each time. The GI50 with HCT-116, in the assay on OVCAR-8, in the assay on COLO 205, with A549, in the assay on UO-31 and in the assay on Malme-3M was > 100 µM (inactive) each time. Also, the GI50 with HCT-15 was above 100 µM.
In the case of `Cc1cccc(C)c1NC(=S)N/C=C(\C#N)C(N)=O`, the GI50 in the assay on OVCAR-5, in the assay on UACC-257, in the assay on OVCAR-4, in the assay with SNB-19, in the assay with SK-MEL-2 and in the assay on OVCAR-3 was > 100 µM (inactive) throughout. Further, the GI50 with IGROV-1, in the assay on NCI-H23, in the assay on SK-MEL-28, in the assay with UACC-62, with SF-268 and in the assay with HCT-116 was > 100 µM (inactive) throughout. Besides, the GI50 in the assay with OVCAR-8, in the assay with CCRF-CEM, in the assay with COLO 205, with A549, in the assay with UO-31 and in the assay on Malme-3M was > 100 µM (inactive) in each case. This molecule registered a GI50 in the assay on HCT-15 above 100 µM.
Regarding `COc1ccc(N2C(=O)CSC2c2c[nH]c3ccccc23)cc1` (stereo not given), the GI50 with OVCAR-5, in the assay with UACC-257, in the assay on HCC 2998, in the assay with OVCAR-4, with SNB-19 and with OVCAR-3 was > 100 µM (inactive) each time. Also, the GI50 in the assay on IGROV-1 is > 100 µM (inactive); in the assay on NCI-H23, 69.7 µM (inactive); in the assay on SK-MEL-28 it was > 100 µM (inactive); with UACC-62 it was 44.9 µM (inactive); with SF-268, > 100 µM (inactive); with HCT-116 it was 59.2 µM (inactive). Moreover, the GI50 is 60 µM (inactive) in the assay with OVCAR-8; 39.5 µM (inactive) in the assay on CCRF-CEM; 92.7 µM (inactive) with COLO 205; 49.8 µM (inactive) in the assay on UO-31; 70.3 µM in the assay with HCT-15.
For the molecule `CC(C)(C)[Si](C)(C)OCCOCn1cc(F)c(=O)[nH]c1=O`, the GI50 in the assay with OVCAR-5, in the assay with UACC-257, with OVCAR-4, in the assay with SNB-19, in the assay with SK-MEL-2 and with OVCAR-3 was > 100 µM (inactive) each time. Further, the GI50 with IGROV-1, in the assay with NCI-H23, with UACC-62, in the assay with SF-268, in the assay with HCT-116 and in the assay on OVCAR-8 was > 100 µM (inactive) each time. The GI50 was > 100 µM (inactive) in the assay on CCRF-CEM; > 100 µM (inactive) with COLO 205; > 100 µM (inactive) with A549; > 100 µM (inactive) in the assay with UO-31; > 100 µM (inactive) with Malme-3M; above 100 µM in the assay with HCT-15.
On to `O=C1CC(=O)N(c2ccccc2)N1/C(=C/c1ccccc1)c1ccccc1`, for which the GI50 is 29.2 µM (inactive) with OVCAR-5; 24.8 µM (inactive) in the assay on UACC-257; 20.1 µM (inactive) in the assay on HCC 2998; 20.5 µM (inactive) with OVCAR-4; 19.6 µM (inactive) in the assay on SNB-19; 23.7 µM (inactive) with SK-MEL-2. For the same molecule, the GI50 was 20.3 µM (inactive) with OVCAR-3; 15.8 µM (inactive) in the assay on IGROV-1; 23.2 µM (inactive) in the assay with NCI-H23; 12.3 µM (inactive) in the assay on SK-MEL-28; 16.3 µM (inactive) in the assay on UACC-62; 16.2 µM (inactive) in the assay on SF-268. Besides, the GI50 was 16 µM (inactive) in the assay on HCT-116; 19.8 µM (inactive) in the assay on OVCAR-8; 0.336 µM (active) in the assay on CCRF-CEM; 19.8 µM (inactive) with COLO 205; 26.1 µM (inactive) with A549; 15.7 µM (inactive) in the assay with UO-31.
Take `CCOC(=O)NC(=O)c1cn(CCNCCO)c(=O)[nH]c1=O`: the GI50 in the assay on OVCAR-5 is > 100 µM (inactive); with OVCAR-4 it was > 100 µM (inactive); in the assay on SNB-19 it was 9.23 µM (inactive); with SK-MEL-2, > 100 µM (inactive); with OVCAR-3, > 100 µM (inactive); in the assay with IGROV-1 it was > 100 µM (inactive). Besides, the GI50 with NCI-H23, in the assay with UACC-62, in the assay with SF-268, in the assay with HCT-116, in the assay with OVCAR-8 and with CCRF-CEM was > 100 µM (inactive) in each case. Also, the GI50 is > 100 µM (inactive) with COLO 205, > 100 µM (inactive) in the assay on A549, > 100 µM (inactive) with Malme-3M and above 100 µM in the assay on HCT-15.

Source of the values: ChEMBL document CHEMBL1201862, “PubChem BioAssay data set” (2004).
